Test results: patent publication US20170002011A1, “BENZENE SULFONAMIDES AS CCR9 INHIBITORS” (NORGINE B.V., priority 2013, published 2017)

Key:
[1] = biological target: T1, CCR9 (Homo sapiens, UniProt P51686); test: FLIPR calcium flux assay using hCCR9 over expressed cells (TECK stimulation); assay type: cell-based; set-up: expressed in transfected cells; host or cells: Chem-1 cells overexpressing hCCR9; settings: Chem1-hCCR9 overexpressing cells; Ki determined from IC50 of TECK-induced intracellular calcium increase
T1 sequence (P51686 1-369): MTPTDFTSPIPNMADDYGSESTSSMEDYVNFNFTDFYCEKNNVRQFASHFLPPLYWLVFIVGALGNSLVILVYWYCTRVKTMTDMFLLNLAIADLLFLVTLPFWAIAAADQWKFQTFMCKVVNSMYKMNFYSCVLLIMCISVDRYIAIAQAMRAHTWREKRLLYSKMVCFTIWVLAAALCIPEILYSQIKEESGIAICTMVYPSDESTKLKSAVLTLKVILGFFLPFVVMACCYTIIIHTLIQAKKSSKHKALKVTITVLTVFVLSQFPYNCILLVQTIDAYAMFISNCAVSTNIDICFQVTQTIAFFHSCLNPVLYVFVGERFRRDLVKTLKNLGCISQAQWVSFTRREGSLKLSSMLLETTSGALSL
Procedure: Biological Activity: FLIPR Assay Using hCCR9 Over Expressed Cells
A calcium flux assay was used to determine the ability of the compounds to interfere with the binding between CCR9 and its chemokine ligand (TECK) in Cheml-hCCR9 overexpressing cells. hCCR9 overexpressing cells were seeded (25,000 cells/well) into black Poly-D-Lysine coated clear bottom 96-well plates (BD Biosciences, Cat #356640) and incubated overnight at 37° C./5% CO2 in a humidified incubator. Media was aspirated and cells washed twice with 100 μL assay buffer (1×HBSS, 20 mM HEPES) containing 2.5 mM Probenecid. A 0.3× Fluo-4 NW calcium dye was prepared in assay buffer containing 5 mM Probenecid and stored in the dark. Each well was loaded with 100 μL of 0.3× Fluo-4 NW calcium dye and incubated at 37° C./5% CO2 for 60 minutes and then at room temperature for 30 minutes. A half-log serially diluted concentration response curve was prepared at a 3× final assay concentration for each compound (10 μM−0.1 nM final assay concentration) and 50 μL of the compound then transferred to the cells (150 μL final volume) for 60 minutes prior to stimulation (30 minutes at 37° C./5% CO2 and 30 minutes at room temperature). TECK was diluted to 4× its ECso in assay buffer (containing 0.1% [w/v] bovine serum albumin[BSA]) and 50 μL dispensed through the fluorometric imaging plate reader (FLIPR) instrument to stimulate the cells (200 μL final volume). The increase in intracellular calcium levels was measured with the FLIPR instrument. The potency of the compound as a CCR9 antagonist was calculated as an IC50 using GraphPad Prism software (variable slope four parameter). The Ki of the compound was determined from the IC50 values using the following equation.
(§1) Ki calculation: IC50/1+(Agonist (TECK) conc. used in assay/EC50 of agonist (TECK) generated on day of experiment)

[2] = biological target: T1, CCR9; test: FLIPR calcium flux assay using MOLT4 cells (TECK stimulation); assay type: cell-based; set-up: endogenous in cells; host or cells: MOLT4 (human T-cell line); settings: MOLT4 cells (a human T-cell line); Ki determined from IC50 of TECK-induced intracellular calcium increase
Procedure: Biological Activity: FLIPR Assay Using MOLT4 Cells
A calcium flux assay was used to determine the ability of the compounds to interfere with the binding between CCR9 and its chemokine ligand (TECK) in MOLT4 cells (a human T-cell line). MOLT4 cells were seeded (100,000 cells/well) in coming cell culture plates (Cat #3603) in assay buffer (lx HBSS, 20 mM HEPES) containing 2.5 mM Probenecid. The plate was centrifuged at 1200 rpm for 3 minutes and incubated at 37° C./5% CO2 for 2 hours. A 0.3× Fluo-4 NW calcium dye was prepared in assay buffer containing 5 mM Probenecid and stored in the dark. Each well was loaded with 25 μL of 0.3× Fluo-4 NW calcium dye and incubated at 37 C/5% CO2 for 60 minutes and then at room temperature for 30 minutes. A half-log serially diluted concentration response curve was prepared at a 4× concentration for each (10 μM-0.1 nM final assay concentration) and 25 μL of the compound then transferred to the cells (100 μL final volume) for 60 minutes prior to stimulation (30 minutes at 37° C./5% CO2 and 30 minutes at room temperature). TECK was diluted to 5× its EC50 in assay buffer (containing 0.1% [w/v] bovine serum albumin [BSA]) and 25 μL dispensed through the FLIPR instrument to stimulate the cells (125 μL final volume). The increased in intracellular calcium levels was measured with the FLIPR instrument. The potency of the compound as CCR9 antagonist was calculated as an IC50 using GraphPad Prism software (variable slope four parameter). The Ki of the compound was determined from the IC50 values using the following equation.
as §1

Row | Ki [1] | Ki [2] | SMILES
1 | 121 nM | 37 nM | Cc1ncccc1-c1cc2c(C#N)ccc(NS(=O)(=O)c3ccc(C(C)(C)C)cc3)n2n1 [Compound 204]
2 | 128 nM | 64 nM | Cc1ccc(-c2cc3c(C#N)ccc(NS(=O)(=O)c4ccc(C(C)(C)C)cc4)n3n2)cn1 [Compound 206]
